Reference: patent publication EP2451450B1, “Inhibitors of proline racemase enzymes for the treatment of Trypanosoma spp infections” (Institut Pasteur, priority 2009, dated 2011)

System: T.cruzi CL Brener (clone F11-F5)
Test: Intracellular parasite fate: inhibitor added after 17h infection, 48h, Giemsa scoring
Format: cell-based
Settings: 48h after infection; for Mean number of parasites/ cell: 3,9 at 0; for % Infected cells: 39,3 at 0; for Number of parasites/100 cells: 153,15 at 0
Description: Vero cells (from green monkey kidney) were seeded at a density of 15x10^6 cells per 25cm^2 culture flasks or at 5 x10^4 cells/well into LabTek slides. The cultures were maintained in RPMI 1640 medium supplemented with 5% fetal bovine serum and kept at 37°C in an atmosphere of 5% CO2. Cell culture-derived trypomastigotes from T.cruzi CL Brener (clone F11-F5) were isolated from the supernatant of Vero cells, which had been previously infected with bloodstream trypomastigotes. Vero cell cultures were infected for 17h at 37°C with cultured trypomastigotes at a 10:1 parasite/cell ratio in the presence or in the absence of increasing doses of freshly made dilutions (3-30 µM) of (E)-4-oxopent-2-enoic acid (OxoPA) and its derivative (E)-5-bromo-4-oxopent-2-enoic acid (Br-OxoPA), previously dissolved in dimethyl sulfoxide (DMSO). For comparison, cultures were seeded with or without 10-1000 µM specific proline racemase inhibitor pyrrole-2-carboxylic acid (PYC) also diluted in DMSO. To verify if proline racemase inhibitors could also exert an effect on the parasite intracellular cycle after 17 hours of parasite-host cell interaction, all the wells were then rinsed three times to eliminate all extracellular parasites and new medium was added to the cultures that were incubated for up to 48 hours with fresh dilutions of the inhibitor compounds. After the different treatments, cultures were washed with PBS, fixed and stained with Giemsa. The numbers of infected host cells and of parasites per infected cell were then scored in at least 400 host cells in independent experiments, run in duplicate. Results are expressed as the percentage of infected cells, the mean number of parasites per infected cell or by the endocytic index (EI) which represents the percentage of infected cells multiplied by the mean number of parasites per infected cell.
Additional studies were performed to verify whether TcPRAC inhibition by the new compounds would influence the intracellular fate of the parasite. For this purpose, after infection for 17 hours, the host cells were washed and different ligand concentrations (3µM, 10 µM, 30 µM) were added to the medium and the infection was followed for up to 48 hours. As can be observed in Tables 4A, B and C, after 48 hours of culture treatments, there was a dose-dependent decrease in the number of parasites/ 100 cells, as well as in the percentage of infected cells or yet in the mean number of parasites/cell. […] Table 4A : Number of parasites/100 cells
Vero cells (from green monkey kidney) were seeded at a density of 15x10^6 cells per 25cm2 culture flasks or at 5x10^4 cells/well into LabTek slides. The cultures were maintained in RPMI 1640 medium supplemented with 5% fetal bovine serum and kept at 37°C in an atmosphere of 5% CO2. Cell culture-derived trypomastigotes from T.cruzi CL Brener (clone F11-F5) were isolated from the supernatant of Vero cells, which had been previously infected with bloodstream trypomastigotes. LabTek wells were infected for 17h at 37°C with cultured trypomastigotes at a 10:1 parasite/cell ratio. All the wells were then washed to eliminate all extracellular parasites and new medium was added to the cultures containing or not increasing concentrations of freshly made dilutions of 3-30 µM of OxoPA or Br-OxoPA molecules. Cultures were washed after 48h, fixed and stained with Giemsa.

SMILES	Mean number of parasites/ cell (3 µM)	% Infected cells (3 µM)	Number of parasites/100 cells (3 µM)	Mean number of parasites/ cell (10 µM)	% Infected cells (10 µM)	Number of parasites/100 cells (10 µM)	Mean number of parasites/ cell (30 µM)	% Infected cells (30 µM)	Number of parasites/100 cells (30 µM)
O=C(O)/C=C/C(=O)CBr [Br-OxoPA, (E)-5-bromo-4-oxopent-2-enoic acid]	3,2	55,3%	176,5	3,1	49,8%	155,8	2,3	31,0%	69,4
CC(=O)/C=C/C(=O)O [OxoPA, (E)-4-oxopent-2-enoic acid]	2,9	41,3%	121,3	3,0	41,3%	129,4	2,8	20,0%	56,1
